Measurements taken from a compilation of properties of binary mixtures (doi:10.1021/acs.jpcb.6b06974).

Experiment: xn = mol fraction of the nth substance listed
Conditions: 101 kPa

CCCCCC[n+]1ccn(C)c1.O=S(=O)([N-]S(=O)(=O)C(F)(F)F)C(F)(F)F + ClC(Cl)Cl
Conditions	electrical conductivity [S/m]
288.5 K, x1 = 0.018	0.021
288.5 K, x1 = 0.137	0.302
288.5 K, x1 = 0.297	0.46
288.5 K, x1 = 0.604	0.255
288.5 K, x1 = 0.713	0.211
288.5 K, x1 = 0.848	0.169
288.5 K, x1 = 0.911	0.153
288.5 K, x2 = 0.014	0.137
298.2 K, x1 = 0.034	0.076
298.2 K, x1 = 0.167	0.477
298.2 K, x1 = 0.256	0.582
298.2 K, x1 = 0.379	0.524
298.2 K, x1 = 0.562	0.369
298.2 K, x1 = 0.732	0.295
298.2 K, x1 = 0.87	0.245
298.2 K, x1 = 0.924	0.233
298.2 K, x1 = 0.962	0.221
298.2 K, x2 = 0.008	0.213
308.2 K, x1 = 0.019	0.04
308.2 K, x1 = 0.123	0.501
308.2 K, x1 = 0.214	0.686
308.2 K, x1 = 0.318	0.701
308.2 K, x1 = 0.4	0.652
308.2 K, x1 = 0.585	0.431
308.2 K, x1 = 0.807	0.378
308.2 K, x1 = 0.905	0.327
308.2 K, x1 = 0.949	0.336
308.2 K, x2 = 0.015	0.326
318.5 K, x1 = 0.03	0.072
318.5 K, x1 = 0.2	0.785
318.5 K, x1 = 0.247	0.835
318.5 K, x1 = 0.446	0.788
318.5 K, x1 = 0.684	0.55
318.5 K, x1 = 0.815	0.529
318.5 K, x1 = 0.92	0.479
